Data taken from PMC9425781, “Targeting integrin αvβ6 with gallium-68 tris (hydroxypyridinone) based PET probes” (Dalton Transactions (Cambridge, England : 2003), 2022).

Experiments:
αvβ6 = settings: cited from earlier work
Description: The two molecules 6 and 7 were conjugated to the nonapeptide cyclo-(FRGDLAFp(NMe)K)[29] (p = D-Pro; (NMe)K = N-methyl-Lys) under mild conditions, without the assistance of any activation agent, producing the two conjugates (11 and 12, Fig. 3). Noteworthy, the arginine-glycine-aspartate (RGD) sequence in cyclic peptides is known to selectively bind αv integrins. […] Moreover, the presence of the two non-proteinogenic amino acids, na ...

[1] = target: T1, integrin αvβ6 (pancreatic cancer BxPC-3 cells) (Homo sapiens, UniProt P06756+P18564); assay: Competitive binding assay (gamma counting, unlabelled THP-peptide vs [68Ga]Ga-labelled peptide) on BxPC-3 cells; format: cell-based; settings: for Span (best-fit value): Std. Error 0.01175 (11), 0.04901 (12), 95% CI 0.04041 to 0.08849 (11), 0.1021 to 0.3002 (12); for log IC50: non-linear regression, GraphPad Prism 9, inhibitor 0.1-5000 nM, 1 h, 37 °C, n = 4, value ± as printed in method; for LogIC50 (best-fit value): Std. Error 0.1982 (11), 0.2904 (12), 95% CI -7.123 to -6.312 (11), -7.167 to -5.993 (12); for HillSlope (best-fit value): Std. Error 0.5820 (11), 0.3994 (12), 95% CI -2.429 to -0.04897 (11), -1.659 to -0.04442 (12)
T1 construct: endogenous in cells; host or cells: BxPC-3 pancreatic cancer cells
T1 sequence (P06756 31-889 limits assumed): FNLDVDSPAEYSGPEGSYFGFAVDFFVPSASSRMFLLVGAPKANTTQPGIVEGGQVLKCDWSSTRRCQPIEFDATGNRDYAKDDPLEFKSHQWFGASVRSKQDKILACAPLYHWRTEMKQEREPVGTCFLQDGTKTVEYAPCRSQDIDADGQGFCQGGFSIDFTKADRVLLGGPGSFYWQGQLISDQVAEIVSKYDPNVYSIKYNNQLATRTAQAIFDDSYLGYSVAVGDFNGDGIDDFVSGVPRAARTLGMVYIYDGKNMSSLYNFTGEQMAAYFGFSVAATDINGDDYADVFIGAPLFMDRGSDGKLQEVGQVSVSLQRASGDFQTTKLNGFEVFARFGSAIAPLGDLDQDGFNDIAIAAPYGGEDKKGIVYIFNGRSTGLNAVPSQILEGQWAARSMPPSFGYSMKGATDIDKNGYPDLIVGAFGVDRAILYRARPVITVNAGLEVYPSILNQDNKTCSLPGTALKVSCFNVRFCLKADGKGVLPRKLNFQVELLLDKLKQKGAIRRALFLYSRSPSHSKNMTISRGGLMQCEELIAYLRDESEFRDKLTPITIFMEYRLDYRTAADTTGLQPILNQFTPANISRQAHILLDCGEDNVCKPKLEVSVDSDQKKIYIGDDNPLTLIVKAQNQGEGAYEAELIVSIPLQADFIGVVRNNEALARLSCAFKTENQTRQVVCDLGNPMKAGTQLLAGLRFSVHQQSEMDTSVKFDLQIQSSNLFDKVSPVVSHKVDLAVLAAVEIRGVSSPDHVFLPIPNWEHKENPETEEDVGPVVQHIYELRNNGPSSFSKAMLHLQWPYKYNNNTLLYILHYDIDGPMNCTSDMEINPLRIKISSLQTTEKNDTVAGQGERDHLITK
T1 sequence (P06756 891-1048 partner limits assumed): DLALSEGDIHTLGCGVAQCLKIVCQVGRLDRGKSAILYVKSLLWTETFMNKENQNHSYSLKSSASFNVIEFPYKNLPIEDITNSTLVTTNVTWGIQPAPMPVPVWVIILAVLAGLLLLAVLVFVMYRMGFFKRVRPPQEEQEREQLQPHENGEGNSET
T1 sequence (P18564 22-788): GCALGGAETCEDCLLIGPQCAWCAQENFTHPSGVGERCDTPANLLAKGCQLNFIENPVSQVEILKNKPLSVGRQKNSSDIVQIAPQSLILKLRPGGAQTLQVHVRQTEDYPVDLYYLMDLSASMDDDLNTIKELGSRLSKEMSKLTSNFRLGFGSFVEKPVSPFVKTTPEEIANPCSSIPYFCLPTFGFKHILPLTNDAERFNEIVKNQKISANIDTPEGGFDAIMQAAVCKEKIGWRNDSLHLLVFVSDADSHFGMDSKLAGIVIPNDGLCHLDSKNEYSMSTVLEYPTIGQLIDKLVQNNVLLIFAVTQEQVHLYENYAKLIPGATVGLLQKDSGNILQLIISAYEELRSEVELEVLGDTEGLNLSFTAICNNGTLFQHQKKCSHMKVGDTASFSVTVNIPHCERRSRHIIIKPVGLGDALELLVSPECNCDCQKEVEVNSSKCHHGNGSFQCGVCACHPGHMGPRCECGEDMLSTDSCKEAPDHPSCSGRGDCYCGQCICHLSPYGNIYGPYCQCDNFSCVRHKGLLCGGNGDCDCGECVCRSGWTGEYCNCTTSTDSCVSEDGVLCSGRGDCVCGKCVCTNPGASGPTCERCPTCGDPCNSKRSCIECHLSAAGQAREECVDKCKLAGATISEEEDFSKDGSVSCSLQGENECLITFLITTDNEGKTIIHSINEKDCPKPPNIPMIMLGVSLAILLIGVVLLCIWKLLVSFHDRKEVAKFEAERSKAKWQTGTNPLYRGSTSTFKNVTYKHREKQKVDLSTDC
Experimental: Binding of [^68Ga]Ga-Integrin αvβ6-peptide-THP (11 and 12) to αvβ6 integrin was determined in the presence of increasing concentrations of unlabelled THP-peptide conjugate (Fig. 4).
BxPC-3 were plated in 12-well plates at a density of 5 × 10^5 cells per well in 1 mL of complete culture medium, cultured overnight at 37 °C and 5% CO2. Radiolabelling with ^68Ga was done as described above, and a solution containing 15 MBq in 1.0 mL was prepared by dilution with distilled H2O. Eleven inhibitor (unlabelled peptide) concentrations were tested to estimate the IC50 value at 0.1, 0.5, 1, 5, 10, 50, 100, 250, 500, 1000, and 5000 nM. Four wells were used for each concentration (n = 4), prepared in 500 μL of complete media. Following the addition of the inhibitor, 20 μL of the radiolabelled peptide solution was added to each well, corresponding to 300 kbq per well (33 nM of the labelled peptide per well). The cells were then incubated for an hour at the same above-mentioned conditions. Following incubation, media were removed from the wells, and the cells were washed twice with cold PBS (500 μL per washing). For each well, the media and the washings were collected together. After the second wash, 500 μL of 1 M NaOH solution was added to each well to lyse the cells, and cell lysates were retrieved 10 minutes later ([…]). A final wash with PBS (500 μL per well) was undertaken and collected in the same tube as the cell lysate. All tubes (containing either medium and washings or lysate and washings) were gamma-counted using a Wallac 1282 Compugamma Universal Gamma Counter. The resulting values were analyzed using Graphpad Prism 9 software, and a non-linear regression curve was generated, from which the IC50 values (log IC50: −6.72 ± 0.20 for 11 and −6.58 ± 0.29 for 12) were obtained.

[2] = binding curve, nonlinear regression

Span (best-fit value) [1, 2]	log IC50 [1]	LogIC50 (best-fit value) ([1]; nonlinear regression)	HillSlope (best-fit value) ([1]; nonlinear regression)	Top (best-fit value) ([1]; binding curve, nonlinear regression, Std. Error 0.004453 (11), 0.01334 (12), 95% CI 0.1175 to 0.1358 (11), 0.2906 to 0.3446 (12))	Bottom (best-fit value) ([1]; binding curve, nonlinear regression, Std. Error 0.01017 (11), 0.04302 (12), 95% CI 0.04141 to 0.08300 (11), 0.02951 to 0.2034 (12))	Substance	potency and selectivity for αvβ6 (in words) (αvβ6)	IC50 (αvβ6; αvβ6) [nM]
–	–	–	–	–	–	cyclo-(FRGDLAFp(NMe)K) (head to tail) [compound 10]	potent and selective binder for αvβ6	0.26
0.06445	−6.72 ± 0.20	-6.717	-1.239	–	–	cyclo-(FRGDLAFp(NMe)K)-THPs (head to tail) [compound 11, cyclo-(FRGDLAFp(NMe)K) conjugated to THP-glutaric (6)]	–	–
0.2012	−6.58 ± 0.29	-6.580	-0.8516	0.3176	0.1165	cyclo-(FRGDLAFp(NMe)K)-THPs (head to tail) [compound 12, cyclo-(FRGDLAFp(NMe)K) conjugated to THP-adipic (7)]	–	–
